Measured values as given in publication PMC10553834, “Differentiating the roles of Mycobacterium tuberculosis substrate binding proteins, FecB and FecB2, in iron uptake” (PLOS Pathogens, 2023).

Target: FecB E339S (Mycobacterium tuberculosis, UniProt O53291, E339S)
Format: binding

carboxymycobactin [apo-cMB]
Fold-decrease: ~1.7 | Kd: 4.8 ± 0.3 µM
